Assay results taken from patent US6500810B2, “Method of regulating expression of adhesion molecules on circulating leukocytes” (Sky High, LLC, priority 1999, dated 2002).

System: CD18
Experiment: Flow cytometry of CD18 on isolated rat neutrophils stimulated with LTB4
Type: cell-based
Conditions: in vitro
Method: Flow cytometric analysis of CD18 complex in rat neutrophils was performed according to standard procedures as described in Vedder & Harlan, J. Clin. Invest., 81:676-682 (1988). Rat neutrophils were freshly isolated from rat whole blood according to the method of Williams et al., J. Leukocyte Biol., 42:455-462 (1987). Isolated neutrophils were washed twice in calcium-free Tyrode's solution containing 0.2% bovine serum albumin (BSA) and suspended in RPMI1630 medium. Neutrophils (5×10^5 cells/tube) were incubated with a monoclonal antibody directed against CD18 (Endogen, Boston, Mass.) at 4° C. for 30 minutes. Excess primary antibody was then removed by washing the platelets or neutrophils in RPMI1630. A goat anti-human gig F(AB′)2 FITC conjugate was used as the secondary antibody at a 1:100 dilution (4° C. for 30 minutes). The stained neutrophils were washed twice with RPMI1630 and finally fixed in 1% paraformaldehyde, and then analyzed by flow cytometry (FACScan, Becton-Dickinson, San Jose, Calif.).

CCCCCCCC/C=C\CCCCCCCC(=O)OCC(COP(O)(O)=S)OC (racemic) [LXR-1035, rac-1-thiophosphate-2-O-methyl-3-oleioyl-glycerol]
cell surface expression of the adhesion molecule CD18: inhibits
